Calls of active or inactive are those of the source.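 The calls were made as follows: active = compounds giving half or more protection of infected cells from virus-caused growth loss, again on retest; inactive = the rest.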 *1 amine or outer side, *2 acyl side, *3 side chain or, on linkers, in order; H or OH if unused. Where a SMILES comes first, the peptide text is derived from it. Bridges are numbered along the chain shown (N, C = ends). Roman numbers before positions name the chains, in order. [ ]: non-standard residue; d: D form. The star is where a group is joined. ξ: configuration not given here. γ4hArg(2R,3R-(OH)2) = N=C(N)NCCC[C@H](N[*:1])[C@@H](O)[C@@H](O)C(=O)[*:2]; Gln(3S,4R-Me2) = C[C@H]([C@H](N)C(=O)O)[C@@H](C)C(N)=O; X5 = CC(C)C[C@H](C)[C@@H](O)[C@@H](C)C(=O)*; X6 = COC(c1ccc(O)cc1)C(N[*:1])C(=O)[*:2]; NMeQ = CN[C@@H](CCC(N)=O)C(=O)O; Thr(3ξ) = CC(O)[C@H](N)C(=O)O; NMeA = CN[C@@H](C)C(=O)O

The test deals with CEM cells HIV-1 protection, formazan growth assay. Description: NCI AIDS Antiviral Assay. Particulars: for IC50: measured here: growth of uninfected CEM cells. The essentials:
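CEM (human) cells, HIV-1 infected vs uninfected, 5-point dosing, formazan growth read-out. Retest threshold 50% protection.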

Turning to `CCCCN(CCCC)CC(C(=O)Nc1ccc([N+](=O)[O-])cc1[N+](=O)[O-])/C(C)=N\NC(=S)NN` (stereo unspecified), the EC50 was over 52.5 µM and the IC50 was over 52.5 µM.

As to `COC(=O)C1=C2Nc3ccccc3C[C@@]23CCN2CCC[C@@](C(C)OC(=O)C=C(C)C)(C1)C23` (stereo partly specified), the EC50 is over 200 µM and the IC50 came out at 23.4 µM.

As for `O=S(=O)(O)c1cc(Cl)c(O)c2ncc(Cl)cc12`, the EC50 was over 200 µM and the IC50 amounted to 42.7 µM. The corresponding values for `CN1CCC/C1=C1/C(=O)N(c2ccccc2)N=C1c1ccc[nH]1` are 191 µM and over 200 µM. Consider `O=C(CC1(O)C(=O)Nc2ccc(Br)cc21)c1ccc2c(c1)OCO2` (stereo unspecified), for which the EC50 was over 200 µM and the IC50 came out at 178 µM.

For the molecule `Cc1cccc(C)c1NC(=O)CCCC(=O)CC(=O)/C=C/c1ccccc1`, the EC50 is over 501 µM and the IC50 was over 501 µM. In the case of `CCOC(=O)c1nc2ccc(C(F)(F)F)cc2nc1NCc1ccc(OC)c(OC)c1`, the EC50 is over 200 µM and the IC50 was 85.1 µM. The corresponding values for `CC1N=C(SCC(=O)c2ccc(F)cc2)N2C(C)N=C(SCC(=O)c3ccc(F)cc3)N12` (stereo unspecified) are over 75.9 µM and over 75.9 µM. For the molecule `O=S(=O)(c1ccc(I)cc1)c1ccc(I)cc1`, the outcome was inactive.

`CCOC1(NC(=O)N(C)C)C2CCCCC21` (stereo unspecified): the EC50 is over 200 µM and the IC50 was over 200 µM.

In the case of `NC(CCC(=O)NC(CSc1ccc([N+](=O)[O-])cc1[N+](=O)[O-])C(=O)NCC(=O)O)C(=O)O` (stereo unspecified), the EC50 was over 525 µM and the IC50 is over 525 µM. Regarding `CCOC(=O)C(=O)Nc1c(C)cccc1C`, the EC50 was over 1120 µM and the IC50 was over 1120 µM.

Take `COc1cc(OC)cc(C2(C#N)CCN(C)CC2)c1`: the EC50 was over 191 µM and the IC50 was over 191 µM.

As for `CCOC(=O)C1N(S(=O)(=O)c2ccc(C)cc2)CCC12C(c1ccc(OC)cc1)NC1CCCCC12` (stereo unspecified), the result was inactive. Take `O=Cc1ccccc1CCn1c(=O)c2cc3c(=O)n(CCc4ccccc4C=O)c(=O)c3cc2c1=O`: the EC50 was over 10.7 µM and the IC50 was over 10.7 µM. With `CC1SC(=O)SC1C` (stereo unspecified), the EC50 was over 1700 µM and the IC50 was over 1700 µM. `O=C(COc1ccc(OCC(=O)N2C(=O)CC(=O)N(c3ccccc3)C2=S)cc1)N1C(=O)CC(=O)N(c2ccccc2)C1=S`: the EC50 was over 141 µM and the IC50 stood at 75.9 µM. Turning to `O=[N+]([O-])O.[Tb]`, the result was inactive. `CC(C(=O)OCc1ccccc1)N(Cc1ccccc1)Cc1ccccc1` (stereo unspecified): the EC50 is over 200 µM and the IC50 was over 200 µM. On to `COc1ccc(NC(C)=O)cc1N1C(=O)/C(=C\c2cc(OC)c(OC)c(OC)c2)S(=O)(=O)C1c1ccccc1` (stereo unspecified), for which the EC50 is over 200 µM and the IC50 worked out at 91.2 µM. Taken in the same sequence, the figures for `CCN(CC)CCC(=O)N1CCc2c([nH]c3ccccc23)C1c1cccnc1` (stereo unspecified) were over 95.5 µM and over 95.5 µM. Taken in the same sequence, the figures for `Cc1cn(C2CC3C(COCN3O)O2)c(=O)[nH]c1=O` (stereo unspecified) were over 200 µM and 166 µM. In the case of `CC(=O)[CH-]C(C)=O.CC(=O)[CH-]C(C)=O.COc1cc2cc(C(=O)N3CC(CCl)c4ccc(NCCN)cc43)[nH]c2c(OC)c1OC.[Cr+5].[O-][Cl+3]([O-])([O-])[O-]` (stereo unspecified), the EC50 is over 1 µM and the IC50 came to 0.479 µM. Taken in the same sequence, the figures for `c1ccc(Oc2cccc(Oc3ccc4c(c3)-c3nc-4nc4[nH]c(nc5nc(nc6[nH]c(n3)c3ccc(Oc7cccc(Oc8ccccc8)c7)cc63)-c3cc(Oc6cccc(Oc7ccccc7)c6)ccc3-5)c3ccc(Oc5cccc(Oc6ccccc6)c5)cc43)c2)cc1` were over 3.02 µM and over 3.02 µM.

Turning to `COc1c2ccoc2nc2c(OC)c(OCC(O)C(C)(C)O)ccc12` (stereo unspecified), the EC50 was over 513 µM and the IC50 was over 513 µM. `NC(=O)CCCNC(=O)c1ccccc1SC(=O)CCCC[n+]1ccccc1`: the EC50 was 0.646 µM and the IC50 was 16.2 µM. As for `N=c1c2ccccc2nnn1-c1ccccc1[N+](=O)[O-]`, the result was inactive. As for `NN1C(=O)CSC1=S`, the EC50 was over 912 µM and the IC50 is 295 µM. With `CCOP(=O)(/N=C1/C2CCC(C2)C1C)OCC` (stereo unspecified), the EC50 is over 234 µM and the IC50 was over 234 µM. Regarding `O=c1oc(-c2ccccc2Br)ns1`, the EC50 was over 100 µM and the IC50 turned out to be 52.5 µM. The corresponding values for `O/N=C(\C(=N/O)Nc1ccc(-c2ccc(NC(=N/O)/C(=N\O)c3ccccc3)cc2)cc1)c1ccccc1` are over 37.2 µM and 30.9 µM.

Consider `COC(c1ccc(O)cc1)C1NC(=O)[C@H](CCC(N)=O)N(C)C(=O)[C@H](CC(C)C)NC(=O)[C@@H](CCCN=C(N)N)NC(=O)[C@H](C(C)O)NC(=O)[C@@H](NC(=O)[C@@H](NC(=O)[C@H](O)[C@H](O)[C@H](CCCN=C(N)N)NC(=O)[C@H](C)NC(=O)[C@H](C)[C@H](O)[C@@H](C)CC(C)C)[C@@H](C)[C@@H](C)C(N)=O)[C@@H](C)OC(=O)[C@H](C)N(C)C1=O` (stereo partly drawn) (X5-A[γ4hArg(2R,3R-(OH)2)][Gln(3S,4R-Me2)]T[Thr(3ξ)][dR]L[NMeQ][X6][NMeA]; ester 4-C), for which the EC50 was 0.0933 µM and the IC50 amounted to 0.794 µM. Take `CCCCNC(=O)CNC(=O)c1ccccc1SC(=O)CCCC[n+]1ccccc1`: the EC50 was over 200 µM and the IC50 was found to be 9.33 µM. The corresponding values for `ClC1(Cl)C2CCOC21n1cnc2ccccc21` (stereo unspecified) are over 200 µM and 102 µM. The corresponding values for `CCCCCCSCC(NC(=O)CCC(N)C(=O)O)C(=O)NCC(=O)O` (stereo unspecified) are over 24 µM and over 24 µM. Taken in the same sequence, the figures for `CCOC(OCC)c1ccc(C(F)(F)F)cc1.[C-]#[O+].[C-]#[O+].[C-]#[O+].[Cr]` were over 20 µM and 3.02 µM. With `Cc1ccc(S(=O)/C=C(\NC(=O)OCc2ccccc2)C(F)(F)F)cc1` (stereo unspecified), the result was inactive. Consider `C=CC(=O)NC(N)=NC#N`, for which the EC50 was over 1820 µM and the IC50 came out at 60.3 µM. As for `CCCC1=C(CC)C(C(=O)Nc2c(C)cccc2C)=NC(S)N1` (stereo unspecified), the EC50 is over 107 µM and the IC50 is over 107 µM. For the molecule `CCOC(=O)C1(C)CCC(C(C(=O)O)C(=O)O)CC1=O` (stereo unspecified), the result was inactive. `CCCCCCCCCCCC(=O)CC(=O)c1c(O)cccc1O`: the EC50 is over 15.5 µM and the IC50 is over 15.5 µM. Turning to `C=CCNC(=S)/N=C/C(C(=O)Nc1ccccc1C)=C(\C)O`, the EC50 was over 200 µM and the IC50 was over 200 µM. For the molecule `C=CCC12CCC(=O)[C@@]1(C)CC=C(O)C2=O` (stereo partly specified), the result was inactive. On to `COc1cc(CC(=O)O)c(C(=O)c2ccc(C#N)cc2)cc1OC`, for which the EC50 was over 200 µM and the IC50 is over 200 µM. For `CC(NC(=O)C(N)CSSCC(N)C(=O)NC(C)C(=O)O)C(=O)O` (stereo not drawn) (I: H-Cys-Ala-OH / II: H-Cys-Ala-OH; disulfide I:1-II:1; configuration not given here), the EC50 was over 178 µM and the IC50 was over 178 µM. Regarding `CCOC(=O)/C=C/c1ccccc1Cl`, the EC50 was over 33.9 µM and the IC50 is over 33.9 µM. As to `CC(C)c1cccc(C(C)C)c1NC(=O)/C(Cc1nc2ccc(Cl)cc2[nH]c1=O)=N\NC(=O)C[N+](C)(C)C`, the EC50 is over 162 µM and the IC50 was over 162 µM. For the molecule `O=C1NC(O)c2ccccc2O1` (stereo unspecified), the EC50 was 85.1 µM and the IC50 was over 200 µM. Regarding `O=C1NC2(CCCCC2)C2CCCCC(O)C12` (stereo unspecified), the result was inactive. Consider `NN=C1/C(=C\c2ccccc2)CCC/C1=C/c1ccccc1`, for which the EC50 was over 64.6 µM and the IC50 is over 64.6 µM.

As for `CC1=NN(c2ccccc2)C(=O)C1N=Nc1ccc(S(=O)(=O)Nc2ccccn2)cc1` (stereo unspecified), the outcome was inactive. On to `COc1ccc(C(CC(=O)O)CC(=O)O)cc1[N+](=O)[O-]`, for which the EC50 is over 200 µM and the IC50 is over 200 µM. For `CCCN1CN(C(C(=O)N[C@@H]2C(=O)N3C(C(=O)O)=C(C)CSC23)c2ccc(O)cc2)CSC1=S` (stereo partly specified), the EC50 is over 347 µM and the IC50 turned out to be 195 µM.

For the molecule `c1cc(C[S+]2CCCC2)oc1C[S+]1CCCC1`, the EC50 was over 200 µM and the IC50 was 102 µM.

As to `CC12CCC(=O)N1c1cccnc1N2` (stereo unspecified), the EC50 was over 1320 µM and the IC50 was determined as 1120 µM. The corresponding values for `COc1ccc(N2C(=O)C(=O)C3(CCCCC3)C2=O)c(OC)c1OC` are over 200 µM and over 200 µM. The corresponding values for `CC(=O)Nc1ccc(OCC(O)CO)cc1` (stereo unspecified) are over 1120 µM and 832 µM. The corresponding values for `COC(=O)C1=C(C)N2CCCOC2(C)C(C(=O)OC)C1c1cccc(Cl)c1` (stereo unspecified) are over 200 µM and 112 µM. For the molecule `CNc1ccc(C)cc1S(=O)(=O)c1ccccc1[N+](=O)[O-]`, the EC50 was 0.832 µM and the IC50 is 16.6 µM. On to `COC1=CC(=O)c2nccc(C)c2C1=O`, for which the result was inactive.

With `O=C(CC(=O)n1nc(-c2ccccc2)c(N=Nc2ccccc2Cl)c1-c1ccccc1)Nc1ccc(Cl)cc1`, the EC50 was over 33.9 µM and the IC50 was over 33.9 µM. Regarding `Cc1cccc(NC(=O)Nc2cccc(Cl)c2Cl)n1`, the EC50 was over 200 µM and the IC50 is over 200 µM. For the molecule `NNc1nncc2[nH]cnc12`, the EC50 was over 200 µM and the IC50 was over 200 µM. Turning to `COc1cnc(NS(=O)(=O)c2ccc(N)cc2)nc1`, the EC50 is over 200 µM and the IC50 was over 200 µM.

As for `c1ccc(Cc2cccc3cc(-c4ccc(-c5ccccc5)cc4)[nH]c23)cc1`, the EC50 was over 200 µM and the IC50 is 166 µM. `CSC1CC2C(CC1(C)SC)C2(C)C` (stereo unspecified): the EC50 is over 155 µM and the IC50 is over 155 µM. `Nc1cc2cccc[n+]2c2cccc(Cl)c12`: the EC50 is over 200 µM and the IC50 stood at 4.47 µM. Regarding `O=c1[nH]c(=S)[nH]n1C(=S)n1[nH]c(=S)[nH]c1=O`, the EC50 is over 200 µM and the IC50 is over 200 µM.

The EC50 is the concentration giving half of the maximal effect. One may read the IC50 as the point on the concentration scale where inhibition reaches its midpoint. Read a low IC50 as inhibition by little substance.

Source of the values: PubChem BioAssay AID179 (DTP/NCI, 2004).
